What was measured:
XYLT1 mRNA expression = XYLT1 mRNA expression in NHDFs by qRT-PCR; type: cell-based, human; conditions: 48 h; for TGF-β1-mediated XYLT1 mRNA expression relative to TGF-β1 only: with TGF-β1 (5 μg/L)
Procedure: A former established cell culture model was utilized to investigate the effect of putative XT-I inhibitors on NHDFs. The inhibition studies were carried out with final inhibitor concentrations of 0.5, 1.0, 2.0 or 4.0 μM diluted in fully supplemented DMEM. In brief, unless otherwise stated, NHDFs were cultivated with a low density of 50 cells per mm^2 on a hard tissue culture substrate (100 × 20 mm dish) in fully supplemented DMEM with or without additional TGF-β1 (5 μg/L) for 24 h, promoting their transdifferentiation into proto-myofibroblasts. Thereafter, cells were treated with celastrol or amphotericin B in the presence or absence of TGF-β1 (5 μg/L) for an additional 48 h. Negative controls treated with solvent only were included for every sampling time. The final DMSO content of 0.04% (v/v) was kept constant in all inhibition experiments. […]
The RNA extraction from cell lysates and cDNA synthesis for mRNA and miRNA expression analysis were performed as described previously.
Quantitative real-time polymerase chain reaction (qRT-PCR) analysis using a LightCycler 480 Instrument II system (Roche, Basel, Swiss) was performed as previously described. The qRT-PCR experiments were conducted with three biological and three technical replicates per donor-derived primary cell culture, unless otherwise stated. The intron-spanning primer sequences used are listed in [7] and Table 1. The geometric mean of the expression levels of the housekeeping genes SDHA, RPL13A and B2M were calculated for expression normalization. The relative target gene mRNA expressions were determined by the ΔΔCT method considering the PCR efficiency. All normalized gene expression levels shown were referred to the respective target gene expression of one primary cell culture sample for the relative comparison of multiple biological samples per experiment and figures.

recombinant human XT-I = molecular target: T1, recombinant human XT-I (Homo sapiens, UniProt Q86Y38); experiment: NP library inhibitor screening, UPLC/ESI-MS/MS XT-I assay; type: biochemical; conditions: 50 μM inhibitor, technical duplicates; for XT-I Activity [%]: Table 2, relative to control (DMSO = 100%); for remaining activity at 50 µM: Table S1, relative to negative control containing DMSO
T1 sequence (Q86Y38 252-959 limits assumed): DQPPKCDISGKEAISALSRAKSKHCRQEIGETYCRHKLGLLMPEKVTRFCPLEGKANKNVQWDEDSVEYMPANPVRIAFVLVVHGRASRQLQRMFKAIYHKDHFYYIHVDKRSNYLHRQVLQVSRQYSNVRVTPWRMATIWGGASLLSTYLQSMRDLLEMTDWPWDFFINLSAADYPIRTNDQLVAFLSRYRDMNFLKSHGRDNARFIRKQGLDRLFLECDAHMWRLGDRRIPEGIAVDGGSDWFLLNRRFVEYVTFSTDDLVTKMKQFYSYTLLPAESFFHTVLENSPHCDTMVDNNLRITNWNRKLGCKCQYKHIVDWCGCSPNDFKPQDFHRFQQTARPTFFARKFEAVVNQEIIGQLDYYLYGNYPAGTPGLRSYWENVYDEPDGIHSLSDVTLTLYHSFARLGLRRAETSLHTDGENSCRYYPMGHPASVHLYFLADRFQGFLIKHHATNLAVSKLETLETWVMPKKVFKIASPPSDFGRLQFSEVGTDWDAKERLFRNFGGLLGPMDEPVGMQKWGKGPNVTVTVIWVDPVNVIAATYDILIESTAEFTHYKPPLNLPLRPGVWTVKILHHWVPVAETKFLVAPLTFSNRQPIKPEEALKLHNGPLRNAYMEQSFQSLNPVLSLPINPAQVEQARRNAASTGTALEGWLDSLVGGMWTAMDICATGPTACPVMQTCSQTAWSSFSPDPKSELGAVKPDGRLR

CC1=C(O)C(=O)C=C2C1=CC=C1[C@@]2(C)CC[C@@]2(C)[C@@H]3C[C@](C)(C(=O)O)CC[C@]3(C)CC[C@]12C [Compound 68, Celastrol]
TGF-β1-mediated XYLT1 mRNA expression relative to TGF-β1 only (XYLT1 mRNA expression; 0.5 μM): nor effected | basal XYLT1 mRNA expression relative to control (XYLT1 mRNA expression; 0.5 μM, without TGF-β1): neither changed | TGF-β1-mediated XYLT1 mRNA expression relative to TGF-β1 only (XYLT1 mRNA expression; 1.0 μM): 0.8 ± 0.07 fold | basal XYLT1 mRNA expression relative to control (XYLT1 mRNA expression; 1.0 μM, without TGF-β1): 0.8 ± 0.06 fold | XT-I Activity [%] (recombinant human XT-I): 38% | remaining activity at 50 µM (recombinant human XT-I): 38%

C[C@@H]1[C@H](O)[C@@H](C)/C=C/C=C/C=C/C=C/C=C/C=C/C=C/[C@H](O[C@@H]2O[C@H](C)[C@@H](O)[C@H](N)[C@@H]2O)C[C@@H]2O[C@](O)(C[C@@H](O)C[C@@H](O)[C@H](O)CC[C@@H](O)C[C@@H](O)CC(=O)O[C@H]1C)C[C@H](O)[C@H]2C(=O)O [Compound 17, Amphotericin B]
TGF-β1-mediated XYLT1 mRNA expression relative to TGF-β1 only (XYLT1 mRNA expression; 0.5 μM): 0.9 ± 0.07 fold | basal XYLT1 mRNA expression relative to control (XYLT1 mRNA expression; 0.5 μM, without TGF-β1): 0.6 ± 0.06 fold | TGF-β1-mediated XYLT1 mRNA expression relative to TGF-β1 only (XYLT1 mRNA expression; 1.0 μM): 0.8 ± 0.06 fold | basal XYLT1 mRNA expression relative to control (XYLT1 mRNA expression; 1.0 μM, without TGF-β1): 0.6 ± 0.05 fold | TGF-β1-mediated XYLT1 mRNA expression relative to TGF-β1 only (XYLT1 mRNA expression; 2.0 μM): 0.7 ± 0.03 fold | basal XYLT1 mRNA expression relative to DMSO control (XYLT1 mRNA expression; 2.0 μM, without TGF-β1): 0.6 ± 0.09 fold | XT-I Activity [%] (recombinant human XT-I): 25% | remaining activity at 50 µM (recombinant human XT-I): 25%

Source: publication PMC7589200, “Identification of Putative Non-Substrate-Based XT-I Inhibitors by Natural Product Library Screening” (Biomolecules, 2020)
